The values below come from ChEMBL document CHEMBL1944579, “Discovery of a potent and orally bioavailable benzolactam-derived inhibitor of Polo-like kinase 1 (MLN0905)” (J Med Chem, 2012).

Series [1] can be described thus: Drug uptake in tumor of nude mouse xenografted with human HT-29 cells at 50 mg/kg, po after 24 hrs. As to conditions: read-out: Drug uptake. In kind it is ADME, organism-based, Neoplasm. Details: dose 50 mg/kg, route oral.
Series [2] can be described thus: Drug uptake in tumor of nude mouse xenografted with human HT-29 cells at 50 mg/kg, po after 48 hrs. In kind it is ADME, organism-based, Neoplasm. On the set-up: dose 50 mg/kg, route oral. As to conditions: read-out: Drug uptake.
Series [3] is described as follows: Drug uptake in tumor of nude mouse xenografted with human HT-29 cells at 50 mg/kg, po after 72 hrs. To be noted: read-out: Drug uptake. It is filed as ADME, organism-based, Neoplasm. On the set-up: dose 50 mg/kg, route oral.
Series [4] in a line: Volume of distribution at steady state in Sprague-Dawley rat at 1 mg/kg, iv. As to conditions: in vivo, read-out: Vdss. It is filed as ADME, organism-based. On the set-up: dose 1 mg/kg, route intravenous.
Series [5] can be described thus: Half life in Sprague-Dawley rat at 1 mg/kg, iv. In kind it is ADME, organism-based. Details: dose 1 mg/kg, route intravenous. To be noted: in vivo.
A short description of series [6]: Plasma clearance in nude NCR mouse at 2 mg/kg, iv. Details: dose 2 mg/kg, route intravenous. In kind it is ADME, organism-based.
Series [7] is described as follows: Volume of distribution at steady state in nude NCR mouse at 2 mg/kg, iv. It is filed as ADME, organism-based. On the set-up: dose 2 mg/kg, route intravenous. To be noted: in vivo, read-out: Vdss.
Series [8] is described as follows: Half life in nude NCR mouse at 2 mg/kg, iv. In kind it is ADME, organism-based. Details: dose 2 mg/kg, route intravenous. To be noted: in vivo.
Series [9] can be described thus: Cmax in Sprague-Dawley rat at 5 mg/kg, po. As to conditions: in vivo. In kind it is ADME, organism-based. Details: dose 5 mg/kg, route oral.
The nature of series [10]: Tmax in Sprague-Dawley rat at 5 mg/kg, po. It is filed as ADME, organism-based. On the set-up: dose 5 mg/kg, route oral. As to conditions: in vivo.
Series [11] can be described thus: Oral bioavailability in Sprague-Dawley rat at 5 mg/kg. It is filed as ADME, organism-based. To be noted: in vivo.
Series [12] is described as follows: Cmax in nude NCR mouse at 12.5 mg/kg, po. In kind it is ADME, organism-based. Details: dose 12.5 mg/kg, route oral. To be noted: in vivo.
A short description of series [13]: Tmax in nude NCR mouse at 12.5 mg/kg, po. It is filed as ADME, organism-based. Details: dose 12.5 mg/kg, route oral. As to conditions: in vivo.
Series [14] in a line: Oral bioavailability in nude NCR mouse at 12.5 mg/kg. In kind it is ADME, organism-based. As to conditions: in vivo.
The nature of series [15]: Drug uptake in tumor of nude mouse xenografted with human HT-29 cells at 25 mg/kg, po after 24 hrs. In kind it is ADME, organism-based, Neoplasm. Details: dose 25 mg/kg, route oral. As to conditions: read-out: Drug uptake. On the technique in general: A xenograft is tissue or cells of one species grown in another, often human tumour cells in immunodeficient mice.
Series [16] can be described thus: Drug uptake in tumor of nude mouse xenografted with human HT-29 cells at 25 mg/kg, po after 48 hrs. To be noted: read-out: Drug uptake. Details: dose 25 mg/kg, route oral. It is filed as ADME, organism-based, Neoplasm.
Series [17] can be described thus: Drug uptake in tumor of nude mouse xenografted with human HT-29 cells at 25 mg/kg, po after 72 hrs. In kind it is ADME, organism-based, Neoplasm. Details: dose 25 mg/kg, route oral. As to conditions: read-out: Drug uptake.
A short description of series [18]: Drug uptake in tumor of nude mouse xenografted with human HT-29 cells at 12.5 mg/kg, po after 24 hrs. It is filed as ADME, organism-based, Neoplasm. On the set-up: dose 12.5 mg/kg, route oral. As to conditions: read-out: Drug uptake.
Series [19] can be described thus: Drug uptake in tumor of nude mouse xenografted with human HT-29 cells at 12.5 mg/kg, po after 48 hrs. In kind it is ADME, organism-based, Neoplasm. Details: dose 12.5 mg/kg, route oral. As to conditions: read-out: Drug uptake.
The nature of series [20]: Drug uptake in tumor of nude mouse xenografted with human HT-29 cells at 12.5 mg/kg, po after 72 hrs. In kind it is ADME, organism-based, Neoplasm. Details: dose 12.5 mg/kg, route oral. As to conditions: read-out: Drug uptake.
Series [21] in a line: Drug uptake in tumor of nude mouse xenografted with human HT-29 cells at 6.25 mg/kg, po after 24 hrs. To be noted: read-out: Drug uptake. In kind it is ADME, organism-based, Neoplasm. On the set-up: dose 6.25 mg/kg, route oral.
The nature of series [22]: Drug uptake in tumor of nude mouse xenografted with human HT-29 cells at 6.25 mg/kg, po after 48 hrs. In kind it is ADME, organism-based, Neoplasm. Details: dose 6.25 mg/kg, route oral. As to conditions: read-out: Drug uptake.
Series [23] can be described thus: Drug uptake in tumor of nude mouse xenografted with human HT-29 cells at 6.25 mg/kg, po after 72 hrs. In kind it is ADME, organism-based, Neoplasm. Details: dose 6.25 mg/kg, route oral. As to conditions: read-out: Drug uptake.
Series [24] can be described thus: Toxicity in po dosed nude mouse administered once daily. It is filed as organism-based. To be noted: in vivo.
Series [25] in a line: Toxicity in po dosed nude mouse administered qd for 1 day in a week. In kind it is organism-based. As to conditions: in vivo.
A short description of series [26]: Toxicity in po dosed nude mouse administered qd for 3 days in a week. It is filed as organism-based. To be noted: in vivo.
A short description of series [27]: Plasma clearance in Sprague-Dawley rat at 1 mg/kg, iv. In kind it is ADME, organism-based. Details: dose 1 mg/kg, route intravenous.

Structures are written as SMILES.

As to `Cc1ncc(CCCN(C)C)cc1Nc1ncc2c(n1)-c1ccc(Cl)cc1NC(=S)C2`, the concentration at 24 h in [1] is 1080 nM. For the same compound, the concentration at 48 h in series [2] was found to be 332 nM. Besides, the concentration at 72 h in series [3] was determined as 60.3 nM.
For `Cc1ncc(CCCN(C)C)cc1Nc1ncc2c(n1)-c1ccc(C(F)(F)F)cc1NC(=S)C2`, the Vd in series [4] came to 10.2 L/kg; in series [7], 6.2 L/kg. For the same compound, the half-life in [5] is 4.7 h; in series [8], 3.4 h. In addition, the clearance is 41.7 mL/min/kg in series [6] and 38.3 mL/min/kg in series [27]. For the same compound, the values for the peak concentration (Cmax) in series [9] and in series [12] were 335 nM and 720 nM, respectively. Also, the time of peak concentration (Tmax) in series [10] and in series [13] was 4 h each time. The figures for the bioavailability in [11] and in [14] were 72% and 45%, respectively. The concentration at 24 h in series [15] was 920 nM; in series [18], 339 nM; in [21], 239 nM; in series [1], 1470 nM. For the same compound, the concentration at 48 h was determined as 369 nM in [16], 353 nM in [19], 121 nM in [22] and 476 nM in series [2]. In addition, the concentration at 72 h in series [17] turned out to be 163 nM; in series [20], 139 nM; in series [23] it was 98 nM; in series [3], 376 nM. The compound also yielded an MTD in series [24] of 12.5 mg/kg. Further, the MTD at 24 h in [25] amounted to 50 mg/kg. In [26], this compound displayed an MTD at 72 h of 25 mg/kg.

In general, half-life refers to the time needed for the level to fall by half in the phase considered. Read a low half-life as rapid decline. Broadly, the clearance is the volume of plasma or blood freed of the substance per unit of time. By Cmax is commonly meant the maximum level reached in the sampled fluid or tissue. The Tmax is the time from dosing to the highest level. As usually defined, the bioavailability is dose-corrected exposure relative to a reference, in per cent. Higher therefore signals much systemic uptake.
